Reference: patent publication US5160742A, “System for delivering an active substance for sustained release” (Abbott Laboratories, priority 1991, dated 1992)
Each block holds one compound with its values, some of them ahead of it.

Legend:
Assay type in all cases: physicochemical
[1] = Dissolution of acetaminophen (APAP) particles in simulated intestinal fluid (USP apparatus 2)
Protocol: (§1) The particles were subjected to dissolution tests in simulated gastric fluid (SGF) at pH 1.2 simulated intestinal fluid (SIF) at pH 6.8. The SGF and SIF were prepared per USP specs (USP XXII-NF XVII, pp. 1788-1789, 1990). Selected samples were also tested in SGF at pH 5.0, in pH 1.2 and 5.0 acids, and in pH 6.8 buffer. The pH 1.2 and 5.0 acids were prepared the same way as the corresponding SGF's, except no enzymes were added. Similarly, the pH 6.8 buffer was prepared the same way as the SIF, except no enzyme was added. The dissolution test was conducted using apparatus 2 assembly, as specified by USP (USP XXII-NF XVII, pp. 1578-1579, 1990). The nominal capacity of the dissolution vessel was 1000 mL. A peddle was used as the stirring element at a rotational speed of 50 rpm. The temperature was maintained at 37°+0.5° C. using a circulating water bath. The solution was sampled at 0.5, 1, and 2 hours for the test in SGF, and at 1, 3, and 6 hours for the test in SIF. A 10-mL aliquot was drawn at each sampling time through a 35 micron filter. The aliquot was then filtered again through a 0.45 micron filter for HPLC analysis to determine its drug content. An HPLC method was developed for the determination of acetaminophen in zein-coated powders and in dissolution samples from various media. Zein-coated powders were dissolved in methanol for analysis. An acetaminophen USP reference standard was used for the quantitation. For zein-coated drug analysis, the standard was prepared in methanol. For dissolution sample analysis, the standard was prepared in water. Each sample or standard solution was then filtered through a 0.45 micron filter for HPLC analysis. A C-18 column connected with an UV detector at 244 nm was used for the HPLC analysis. The mobile phase was water/methanol (85/15, v/v) at a flow rate of 1.0 mL/min. The analysis time was 18-20 min/injection.

[2] = Dissolution of acetaminophen (APAP) particles in simulated gastric fluid (USP apparatus 2)
Protocol: as §1

[3] = Dissolution of amoxicillin particles in simulated intestinal fluid
Protocol: (§2) The particles were subjected to dissolution tests in simulated gastric fluid (SGF) at pH 1.2 simulated intestinal fluid (SIF) at pH 6.8. The SGF and SIF were prepared per USP specs (USP XXII-NF XVII, pp. 1788-1789, 1990). Selected samples were also tested in SGF at pH 5.0, in pH 1.2 and 5.0 acids, and in pH 6.8 buffer. The pH 1.2 and 5.0 acids were prepared the same way as the corresponding SGF's, except no enzymes were added. Similarly, the pH 6.8 buffer was prepared the same way as the SIF, except no enzyme was added. The dissolution test was conducted using apparatus 2 assembly, as specified by USP (USP XXII-NF XVII, pp. 1578-1579, 1990). The nominal capacity of the dissolution vessel was 1000 mL. A peddle was used as the stirring element at a rotational speed of 50 rpm. The temperature was maintained at 37°+0.5° C. using a circulating water bath. The solution was sampled at 0.5, 1, and 2 hours for the test in SGF, and at 1, 3, and 6 hours for the test in SIF. A 10-mL aliquot was drawn at each sampling time through a 35 micron filter. […] The particles manufactured in this example were subjected to dissolution testing as described in Example 1. Selected particle samples were subjected to sequential dissolution testing as described in Example 2. […] The column was C-18. […] The detector was UV at 230 nm. A pure amoxicillin trihydrate (AMX1), which was calibrated with an USP reference standard, was used as the working standard. For dissolution sample analysis, the standard was dissolved in the mobile phase. For zein-coated drug analysis, both the sample and the standard were dissolved by mixing with 5 mL methanol for 2-5 minutes and then diluting with the mobile phase to the desired level.

[4] = Dissolution of amoxicillin particles in simulated gastric fluid
Protocol: as §2

[5] = Suspension stability study: amoxicillin released in syrup; settings: 30° C.
Protocol: Samples of particles having each of the structure from Table 11 were suspended at a concentration of 250 mg amoxicillin per 5 ml in sucrose-based syrups adjusted to different pH's, the formulations of these syrups are set forth in Table 12, were stored at 30° C. and shaken daily. Samples were removed for testing at 1 hours, 1 day, 7 days and 14 days. Encapsulated drug and undissolved particulate matter were removed from the suspensions by filtration through a 35 micron filter. The clarified syrups were diluted with mobile phase of pH 5.0 potassium phosphate buffer containing 4% acetonitrile and filtered again through a 0.45 micron filter prior to analysis by high pressure liquid chromatography (HPLC). The method of quantitating the amount of amoxicillin released in the syrup solutions was adapted from the USP method for amoxicillin described on pages 2088-2089 of Supplement 1 in USP XXII-NF XVII.

[6] = Suspension stability study: APAP released in syrup
Description: The concept that stability in an aqueous suspension is primarily controlled by the exterior coating layer is supported by studies performed on acetaminophen (APAP). Acetaminophen was coated with various combinations of zein and Eudragit®. […] The composition of these syrups was similar to those used for the amoxicillin suspensions (compare Tables 12 and 14). A description of the manufacture of the APP27 particles is set forth above in Example 3; for APP32 particles in Example 3; for APP42 particles in Example 5; and for APP46 particles in Example 5. The particles identified in the tables as as "APAP" are uncoated acetaminophen. APP27 and 32 were suspended at 250 mg per 5 ml in a syrup at pH 8.1 and APP42 and 46 were each suspended at the same concentration in syrups at both pH 5.0 and 8.1 respectively. For analysis of samples in sucrose-based syrups, the samples were diluted 50-400 folds with water and then filtered through a 0.45 micron filter for HPLC analysis. The dilution was necessary for proper UW detection and to minimize the effect of matrix on column performance. The methanol content of the aqueous mobile phase was adjusted between 2 and 15%, pending the performance of the C-18 column used.

Cumulative % Release of APAP, 1 hr ([1]; In SIF, pH 6.8, 1 hr): 98%
Cumulative % Release of APAP, 3 hr ([1]; In SIF, pH 6.8, 3 hr): 101%
Cumulative % Release of APAP, 6 hr ([1]; In SIF, pH 6.8, 6 hr): 102%
release of APAP in simulated intestinal fluid (in words) ([1]; SIF pH 6.8): dissolved fairly rapidly
Cumulative % Release of APAP, 0.5 hr ([2]; In SGF, pH 1.2, 0.5 hr): 97%
Cumulative % Release of APAP, 1 hr ([2]; In SGF, pH 1.2, 1 hr): 97%
Cumulative % Release of APAP, 2 hr ([2]; In SGF, pH 1.2, 2 hr): 98%
release of APAP in simulated gastric fluid (in words) ([2]; SGF pH 1.2): dissolved in gastric fluid very quickly
Compound: CC(=O)Nc1ccc(O)cc1 [APP21, Acetaminophen]

Cumulative % Release of Amoxicillin, 1 hr ([3]; In SIF, pH 6.8, 1 hr): 83%
Cumulative % Release of Amoxicillin, 3 hr ([3]; In SIF, pH 6.8, 3 hr): 91%
Cumulative % Release of Amoxicillin, 6 hr ([3]; In SIF, pH 6.8, 6 hr): 93%
release of amoxicillin in simulated intestinal fluid (in words) ([3]; SIF pH 6.8): quite rapidly
Cumulative % Release of Amoxicillin, 0.5 hr ([4]; In SGF, pH 1.2, 0.5 hr): 53%
Cumulative % Release of Amoxicillin, 1 hr ([4]; In SGF, pH 1.2, 1 hr): 45%
Cumulative % Release of Amoxicillin, 2 hr ([4]; In SGF, pH 1.2, 2 hr): 36%
release of amoxicillin in simulated gastric fluid (in words) ([4]; SGF pH 1.2): rapid release
Compound: CC1(C)S[C@@H]2[C@H](NC(=O)[C@H](N)c3ccc(O)cc3)C(=O)N2[C@H]1C(=O)O [AMX23, amoxicillin]

Percent Amoxicillin Released in Syrup ([5]; Syrup at pH 5.0, 1 Day): 9.3%
Percent Amoxicillin Released in Syrup ([5]; Syrup at pH 5.0, 1 Hr): 7.4%
Percent Amoxicillin Released in Syrup ([5]; Syrup at pH 5.0, 7 Days): 11.3%
Percent Amoxicillin Released in Syrup ([5]; Syrup at pH 5.0, 14 Days): 9.0%
Percent Amoxicillin Released in Syrup ([5]; Syrup at pH 6.5, 1 Day): 9.6%
Percent Amoxicillin Released in Syrup ([5]; Syrup at pH 6.5, 1 Hr): 8.6%
Percent Amoxicillin Released in Syrup ([5]; Syrup at pH 6.5, 7 Days): 14.6%
Percent Amoxicillin Released in Syrup ([5]; Syrup at pH 6.5, 14 Days): 10.9%
Percent Amoxicillin Released in Syrup ([5]; Syrup at pH 8.5, 1 Day): 2.8%
Percent Amoxicillin Released in Syrup ([5]; Syrup at pH 8.5, 1 Hr): 19.5%
Percent Amoxicillin Released in Syrup ([5]; Syrup at pH 8.5, 7 Days): 9.6%
Percent Amoxicillin Released in Syrup ([5]; Syrup at pH 8.5, 14 Days): 5.7%
Compound: CC1(C)S[C@@H]2[C@H](NC(=O)[C@H](N)c3ccc(O)cc3)C(=O)N2[C@H]1C(=O)O [AMX1, amoxicillin trihydrate]

Percent APAP Released in Syrup ([6]; Table 15, syrup at pH 8.1, 1 Hr): 20.0%
Percent APAP Released in Syrup ([6]; Table 15, syrup at pH 8.1, 28 Days): 23.0%
Percent APAP Released in Syrup ([6]; Table 16, syrup pH 5.0, 1 Day): 31.9%
Percent APAP Released in Syrup ([6]; Table 16, syrup pH 5.0, 1 Hr): 20.2%
Percent APAP Released in Syrup ([6]; Table 16, syrup pH 5.0, 7 Days): 26.5%
Percent APAP Released in Syrup ([6]; Table 16, syrup pH 5.0, 14 Days): 24.9%
Percent APAP Released in Syrup ([6]; Table 16, syrup pH 8.1, 1 Day): 27.5%
Percent APAP Released in Syrup ([6]; Table 16, syrup pH 8.1, 1 Hr): 7.7%
Percent APAP Released in Syrup ([6]; Table 16, syrup pH 8.1, 7 Days): 29.8%
Percent APAP Released in Syrup ([6]; Table 16, syrup pH 8.1, 14 Days): 28.0%
Compound: CC(=O)Nc1ccc(O)cc1 [APAP, acetaminophen]
